PubChem BioAssay AID1918941 (Molecular Pharmacology Branch, DTP, NCI, 2023)
Several values for one entry are separate records, joined by “and”; a condition that tells them apart may be missing. Equal values may be shown once.

Tested on: SW 1271 complex spheroids, viability
Assay: Anticancer human tumor SW 1271 cell line growth inhibition [LSD1];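 also: spheroids exposed to agents for 7 days before luminescence read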;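 as to viability, T/C: 100% = DMSO vehicle control viability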
Conditions: for viability, T/C: stronger effect = lower value
Text: Multicellular complex tumor spheroid response to LSD1 Inhibitor Iadademstat in combination with a variety of drugs and investigational agents in selected tumor cell lines
The current study was undertaken to assess response to LSD1 inhibitors in combination with standard-of-care drugs and investigational agents in solid tumor complex spheroid models as well as in the K-562 leukemia. Complex spheroids include a stromal component modeled by human endothelial cells (HUVEC) and fibroblasts modeled by human mesenchymal stem cells (MSCs). The concentration ranges selected for each drug and investigational agent were based upon clinically achievable concentrations if the clinical Cmax of the agent was known.
Compounds. The drugs and investigational agents used in this study are listed on Table 1. All of the agents used, including staurosporine (NSC755774) and gemcitabine (NSC613327), were obtained from the Developmental Therapeutics Program, NCI. FDA-approved anticancer drugs are available from the NCI at http://dtp.nci.nih.gov/branches/dscb/oncology_drugset_explanation.html. Drugs and investigational agents were >95% pure by proton nuclear magnetic resonance (NMR) and liquid chromatography/mass spectrometry (LC/MS). Stock solutions were prepared at 400x in DMSO, stored at -70 degrees C, and diluted in fresh medium prior to their use. The final concentration of DMSO in cell culture wells never exceeded 0.25% (v/v). The FDA-approved anticancer drug set is available from the Developmental Therapeutics Program at https://dtp.cancer.gov/organization/dscb/obtaining/available_plates.htm. All drugs and investigational agents were tested over a range starting from a high concentration at or near the clinical Cmax and decreasing in half-log increments. If the clinical Cmax for an agent had not been determined, the highest concentration tested was 10 microM.
Cell Lines. The patient-derived cancer cell (PDC) lines: 292921-168-R-J2-PDC, K24384-001-R-PDC, and 521955-158-R2-J5-PDC pancreatic carcinomas, 556581-035-R-J1 ovarian carcinoma, 324938-238-R-J1-PDC, 855422-203-R-J1-PDC and 883617-216-R-J1-PDC urothelial bladder carcinomas, 743489-274-T-PDC renal cell carcinoma, 138582-R-J1 Merkel cell tumor, K60290-347-R-J1 and K57222-313-R-J1-PDC glioblastomas, 653999-131-R-J2-PDC, LG0703-F948-PDC, and 349418-098-R-PDC non-small cell lung carcinomas, 885512-296-R-J2-PDC, 171881-019-R-J1-PDC breast carcinomas and 186277-243-T-J2-PDC and 233499-124-R-J2-PDC colon carcinomas were obtained from the NCI Patient-Derived Models Repository (PDMR, https://pdmr.cancer.gov). The established cell lines NCI/ADR-RES (RRID:CVCL_14520 and OVCAR-5 (RRID:CVCL_1628) ovarian carcinomas, 786-O (RRID:CVCL_1051) and A498 (RRID:CVCL_A498) renal cell carcinoma, NCI-H211 (ATCC, cat. CRL-5824; RRID:CVCL_1529), NCI-H196 (ATCC, cat. CRL-5823, RRID:CVCL_1509), SW 1271 (ATCC, cat. CRL-2177, RRID:CVCL_1716) and NCI-H1876 (ATCC, cat. CRL-5902, RRID:CVCL_1503) small cell lung carcinomas, MDA-MB-231 (RRID:CVCL_0062) and MDA-MB-468 (RRID:CVCL_0419)breast carcinomas (10-12). Pooled donor human umbilical vein endothelial cells (HUVEC, Lonza, cat. CC-2519) and human mesenchymal stem cells (hMSC, Lonza, cat. PT-2501) were purchased from Lonza (Walkersville, MD).
Cell Culture. All cells were maintained in an incubator at 37 degrees C and 5% CO2 with 95% humidity. The PDC lines were cultured according to standard operating procedures established by the NCI PDMR (https://pdmr.cancer.gov). Briefly all PDCs were thawed and cultured in Matrigel-coated flasks prepared with a working solution of 1X Ham's F-12 nutrient mix, without supplementation (Invitrogen, Waltham, MA, cat. 11765054), 100 U/mL penicillin-streptomycin (Invitrogen, cat. 15140122), and 2.5% Matrigel (Corning Inc., Corning, NY, cat. 354248) for the first three passages. […]

[1] = curve of first compound, second compound 0.1 µM
[2] = curve of first compound, second compound 0.316 µM
[3] = curve of first compound, second compound 1 µM
[4] = curve of first compound, second compound 3.16 µM
[5] = curve of first compound, second compound 10 µM
[6] = second compound 0.1 µM, first compound 0.0316 µM
[7] = second compound 0.1 µM, first compound 0.1 µM
[8] = second compound 0.1 µM, first compound 0.316 µM
[9] = second compound 0.1 µM, first compound 1 µM
[10] = second compound 0.1 µM, first compound 3.16 µM
[11] = second compound 0.1 µM, first compound 10 µM
[12] = second compound 0.316 µM, first compound 0.0316 µM
[13] = second compound 0.316 µM, first compound 0.1 µM
[14] = second compound 0.316 µM, first compound 0.316 µM
[15] = second compound 0.316 µM, first compound 1 µM
[16] = second compound 0.316 µM, first compound 3.16 µM
[17] = second compound 0.316 µM, first compound 10 µM
[18] = second compound 1 µM, first compound 0.0316 µM
[19] = second compound 1 µM, first compound 0.1 µM
[20] = second compound 1 µM, first compound 0.316 µM
[21] = second compound 1 µM, first compound 1 µM
[22] = second compound 1 µM, first compound 3.16 µM
[23] = second compound 1 µM, first compound 10 µM
[24] = second compound 3.16 µM, first compound 0.0316 µM
[25] = second compound 3.16 µM, first compound 0.1 µM
[26] = second compound 3.16 µM, first compound 0.316 µM
[27] = second compound 3.16 µM, first compound 1 µM
[28] = second compound 3.16 µM, first compound 3.16 µM
[29] = second compound 3.16 µM, first compound 10 µM
[30] = second compound 10 µM, first compound 0.0316 µM
[31] = second compound 10 µM, first compound 0.1 µM
[32] = second compound 10 µM, first compound 0.316 µM
[33] = second compound 10 µM, first compound 1 µM
[34] = second compound 10 µM, first compound 3.16 µM
[35] = second compound 10 µM, first compound 10 µM

| SMILES | IC50 [1] | IC50 [2] | IC50 [3] | IC50 [4] | IC50 [5] | viability, T/C [6] | viability, T/C [7] | viability, T/C [8] | viability, T/C [9] | viability, T/C [12] | viability, T/C [13] | viability, T/C [14] | viability, T/C [15] | viability, T/C [18] | viability, T/C [19] | viability, T/C [20] | viability, T/C [21] | viability, T/C [24] | viability, T/C [25] | viability, T/C [26] | further results |
| --- | --- | --- | --- | --- | --- | --- | --- | --- | --- | --- | --- | --- | --- | --- | --- | --- | --- | --- | --- | --- | --- |
| CC(C)c1c(-c2ccccc2)nc2c(C#N)c[nH]n2c1=O + NC1CCC(NC2CC2c2ccccc2)CC1 | > 10 µM | > 10 µM | > 10 µM | > 10 µM | > 10 µM | 85.7% | 80.3% | 79.1% | 82.8% | 75.2% | 89.2% | 77.9% | 74.2% | 74.1% | 74.8% | 75.5% | 80.1% | 76.6% | 73.1% | 71.5% | viability, T/C [10]: 71.1%; viability, T/C [11]: 69.4%; viability, T/C [16]: 68.9%; viability, T/C [17]: 54.7%; viability, T/C [22]: 68.8%; viability, T/C [23]: 59.4%; viability, T/C [27]: 68.8%; viability, T/C [28]: 71.9%; viability, T/C [29]: 64.2%; viability, T/C [30]: 66.7%; viability, T/C [31]: 60.5%; viability, T/C [32]: 70.1%; viability, T/C [33]: 65.5%; viability, T/C [34]: 65.8%; viability, T/C [35]: 46.5% |
| CC1(C)CCC(CN2CCN(c3ccc(C(=O)NS(=O)(=O)c4ccc(NCC5CCOCC5)c([N+](=O)[O-])c4)c(Oc4cnc5[nH]ccc5c4)c3)CC2)=C(c2ccc(Cl)cc2)C1 + NC1CC1c1ccc(-c2cccc(O)c2)cc1 | 2.55 µM | 2.97 µM | 2.49 µM | 1.91 µM | 2.1 µM | 80.6% | 84.3% | 91.6% | 78.3% | 85.8% | 95% | 91.8% | 85.5% | 91.3% | 78.7% | 82.4% | 80.8% | 78.4% | 81.7% | 79% | viability, T/C [10]: 43.4%; viability, T/C [11]: 1.33%; viability, T/C [16]: 47.9%; viability, T/C [17]: 1.12%; viability, T/C [22]: 42%; viability, T/C [23]: 1.39%; viability, T/C [27]: 66.6%; viability, T/C [28]: 36.7%; viability, T/C [29]: 1.44%; viability, T/C [30]: 73.3%; viability, T/C [31]: 65.6%; viability, T/C [32]: 64.1%; viability, T/C [33]: 69.8%; viability, T/C [34]: 40%; viability, T/C [35]: 0.32% |
| Nc1ccccc1NC(=O)c1ccc(CNC(=O)OCc2cccnc2)cc1 |  |  |  |  |  |  |  |  |  |  |  |  |  |  |  |  |  |  |  |  | viability, T/C (compound 0.00949 µM): 90.7% and 84.4%; viability, T/C (compound 0.03 µM): 83.4% and 69.1%; viability, T/C (compound 0.0949 µM): 61.4% and 59.8%; viability, T/C (compound 0.3 µM): 35.6% and 29.2%; viability, T/C (compound 0.949 µM): 10.2% and 7.11%; viability, T/C (compound 3 µM): 6.48% and 7.88%; IC50 (curve of compound): 0.156 µM and 0.127 µM |
| O=C(C=Cn1cnc(-c2cc(C(F)(F)F)cc(C(F)(F)F)c2)n1)NNc1cnccn1 + NC1CC1c1ccc(-c2cccc(O)c2)cc1 | 0.14 µM | 0.148 µM | 0.0889 µM | 0.171 µM | 0.195 µM | 66.7% | 49.3% | 45.3% | 21.6% | 64.8% | 51.7% | 42% | 19.4% | 69.5% | 41.3% | 39.7% | 23.7% | 76.1% | 53.3% | 43.1% | viability, T/C (second compound 0.1 µM, first compound 0.00316 µM): 79%; viability, T/C (second compound 0.1 µM, first compound 0.01 µM): 70.9%; viability, T/C (second compound 0.316 µM, first compound 0.00316 µM): 68.7%; viability, T/C (second compound 0.316 µM, first compound 0.01 µM): 74.1%; viability, T/C (second compound 1 µM, first compound 0.00316 µM): 73%; viability, T/C (second compound 1 µM, first compound 0.01 µM): 64.1%; viability, T/C (second compound 3.16 µM, first compound 0.00316 µM): 73.9%; viability, T/C (second compound 3.16 µM, first compound 0.01 µM): 77.3%; viability, T/C [27]: 23.4%; viability, T/C (second compound 10 µM, first compound 0.00316 µM): 71.2%; viability, T/C (second compound 10 µM, first compound 0.01 µM): 73.6%; viability, T/C [30]: 68.1%; viability, T/C [31]: 55.3%; viability, T/C [32]: 45.8%; viability, T/C [33]: 28% |
